How the values were obtained:
[1] = target: T1, PRMT5 (Homo sapiens, UniProt O14744); assay: AlphaLISA PRMT5 methyltransferase assay (biotin-H4R3 substrate, SAM); format: biochemical; settings: PRMT5 methyltransferase activity, FIG. 3C; read-out: IC50 binding affinities by AlphaLISA assay
T1 construct: Flag; made in house; host or cells: 293 cells
From the text: For AlphaLISA HTS: the substrate, histone H4 peptide unmethylated at arginine (R) 3 (unmeH4R3) was purchased from AnaSpec (Fremont, CA). The 23-amino acid H4R3 peptide was biotinylated at its N′ terminus: […]-K(biotin)-NH2 (SEQ ID NO: 1). S-adenosyl methionine (SAM) was used as a methyl group donor (New England Biolabs, Ipswich, MA). Compound libraries comprising of FDA-approved drugs, synthetic and semi-synthetic natural products as well as bioactives were collectively purchased from Analyticon Discovery (Rockville, MD), MilliporeSigma (Burlington, MA) and Microsource Discovery Systems Inc (Gaylordsville, CT). Acceptor beads specific for dimethylated H4R3, Donor beads with a streptavidin tag, assay buffer, OptiPlate™ 384-well white bottom plates, TopSeal™-A film to seal the plates and EnVision® Multilabel Reader were sourced from PerkinElmer (Waltham, MA). […]
A detailed description of optimization of the AlphaLISA HTS screening protocol has already been published previously. […] Alpha signal was then quantified using the EnVision® reader.
To design a drug screen to check for compounds that had the potential to inhibit PRMT5 methyltransferase activity, the AlphaLISA assay was utilized. […] This emitted AlphaLISA signal is directly proportional to the methyltransferase activity of PRMT5, thus allowing for quantification of its enzymatic activity.

[2] = system: PDAC cells (PANC1, MiaPaCa2 and AsPC1); assay: MTT cell viability assay, PDAC cells; format: cell-based; settings: 4 days
Procedure: (§1) Cells were grown to 60% density in clear flat-bottom 96-well plates (Corning Inc, Corning, NY) for 24 hours and treated with a range of concentrations of either Clo or Can respectively, followed by incubation for 4 days. 10 μl of MTT dye (Sigma-Aldrich) was added to each well and incubated for 2 hours at 37° C. The media:MTT mixture was then removed and 10 μl DMSO was added per well. Absorbance was measured using Synergy H4 Multi-Mode Reader (BioTek Instruments, Winooski, VT).

[3] = system: CRC cell lines (HT29, HCT116 and DLD1); assay: MTT cell viability assay, CRC cells; format: cell-based; settings: 4 days
Procedure: as §1

[4] = system: BC cells (MD-MB-231 and BT20); assay: MTT cell viability assay, BC cells; format: cell-based; settings: 4 days
Procedure: as §1

[5] = system: PANC1, HT29 and MDA-MB231 cells; assay: Three-dimensional (3D) colony formation assay; format: cell-based; settings: increasing concentrations, 72 hours of drug treatment
Procedure: PANC1 and MDA-MB-231 (1000 cells) as well as HT29 (250 cells) were seeded per well within ultra-low attachment plates (Corning Inc) in media comprising 3% Reduced Growth Factor-Matrigel (BD Biosciences, Franklin Lakes, NJ). Clo and Can were added in a concentration range from 5-100 μM and 5-120 μM respectively after seeding for 48 hours. After 72 hours of drug treatment, the cells were stained using 10% Alamar blue dye (Fisher) and fluorescence was quantified using a Synergy H4 Reader.

[6] = system: PRMT5-mediated R30 dimethylation of p65 (NF-κB); assay: Western blot for symmetric dimethylation of p65 at R30; format: cell-based; settings: PANC1, HT29 and MDA-MB-231 cells; treated at MTT IC50 values; vs untreated
Procedure: Primary antibodies for symmetric dimethylation at arginine (R) 30 subunit of p65 (detected by generating a customized polyclonal primary antibody in collaboration with GenScript Inc, Piscataway, NJ) and […] (Sigma-Aldrich) with their corresponding secondary antibodies were used.
PDAC, CRC and BC cells were pelleted post treatment with either Clo or Can in phosphate buffered saline (PBS). Pellets were lysed by overnight incubation at −80° C. as well as addition of lysis buffer [(10 mM Tris-Cl pH 8.0, 1 mM EDTA, 1% Triton X, 0.1% sodium deoxycholate, 0.1% SDS (sodium dodecyl sulfate), 14 mM NaCl, 1 mM phenylmethylsulfonyl fluoride]. Protein concentration for each sample was determined using Protein Assay Reagent (Biorad, Hercules, CA). Equal protein concentrations were run on a 10% SDS-PAGE (polyacrylamide gel electrophoresis) gel and transferred using polyvinylidene fluoride membrane (Thermo Fisher Scientific). Membranes were exposed to respective primary and secondary antibodies at dilutions and times based on manufacturer's instructions. Protein signal was detected using enhanced chemiluminescence (ECL) reagent (PerkinElmer).

[7] = system: NF-κB activation; assay: NF-κB luciferase assay; format: cell-based; settings: increasing concentrations; PANC1, HT29 and MDA-MB-231 cells; 48 hours
Procedure: The NF-κB luciferase lentiviral construct pLA-NFκBmCMV-luc-H4-puro (containing five tandem copies of the NF-κB site from the IP10 gene) was introduced in the respective cell lines using Lipofectamine™ LTX Reagent and PLUS Reagents (Thermo Fisher Scientific). Luciferase activity was measured after 48 hours (with or without drug treatment) using Reporter Lysis Buffer kit (Promega, Madison, WI) as per manufacturer's instructions and the Synergy H4 Reader.

[8] = system: IL8 and TNFα mRNA expression; assay: qRT-PCR of NF-κB target genes IL8 and TNFα; format: cell-based; settings: PANC1, HT29 and MDA-MB-231 cells; 48 hours; vs untreated
Procedure: Following treatment with either Clo or Can for 48 hours, total RNA was isolated from the respective cell lines using Trizol as described earlier. First strand complementary DNA was generated using SuperScript III First-Strand Synthesis Kit (Invitrogen, Carlsbad, CA). Following this, qPCR was executed using FastStart Universal SYBR Green kit (Roche, Indianapolis, IN).

[9] = system: PANC1, HT29 and MCF7 xenografts; assay: Xenograft tumor growth in NSG mice (PANC1, HT29, MCF7); format: in vivo; settings: PANC1, HT29 or MCF7 xenografts, 100 mg/kg oral gavage daily
Procedure: (§2) Male and female NSG mice were obtained from the In Vivo Therapeutics Core at Indiana University School of Medicine. After acclimation for 7 days, NSG mice (5-6 weeks old) were xenografted with Mycoplasma-free PANC1, MCF7 or HT29 cells subcutaneously (1×10^7 PANC1, 3×10^6 MCF7 or 3×10^6 HT29 cells used per mouse in 0.2 ml of a 1:1 mix of serum free DMEM media, or serum free RPMI media and Matrigel). Male mice were xenografted with PANC1 and HT29 cells. Female mice were xenografted with MCF7 cells. 5 mice were randomized in each group when tumor volumes reached ˜50 mm^3. Mice were treated with either vehicle control (10% DMSO, 20% PEG400, 5% Tween 80 and 65% sterile water), 100 mg/kg or 200 mg/kg candesartan cilexetil dissolved in the vehicle, or 100 mg/kg or 200 mg/kg cloperastine dissolved in the vehicle through oral gavage daily. Tumor volumes were measured 4 times per week and body weights were measured twice a week. The study was performed in accordance with the guidelines and standards of the Institutional Animal Care and Use Committee (IACUC)

[10] = design: species or system mice; settings: mouse, in vivo, po, 100 mg/kg
Procedure: as §2

T1 sequence (O14744 whole entry): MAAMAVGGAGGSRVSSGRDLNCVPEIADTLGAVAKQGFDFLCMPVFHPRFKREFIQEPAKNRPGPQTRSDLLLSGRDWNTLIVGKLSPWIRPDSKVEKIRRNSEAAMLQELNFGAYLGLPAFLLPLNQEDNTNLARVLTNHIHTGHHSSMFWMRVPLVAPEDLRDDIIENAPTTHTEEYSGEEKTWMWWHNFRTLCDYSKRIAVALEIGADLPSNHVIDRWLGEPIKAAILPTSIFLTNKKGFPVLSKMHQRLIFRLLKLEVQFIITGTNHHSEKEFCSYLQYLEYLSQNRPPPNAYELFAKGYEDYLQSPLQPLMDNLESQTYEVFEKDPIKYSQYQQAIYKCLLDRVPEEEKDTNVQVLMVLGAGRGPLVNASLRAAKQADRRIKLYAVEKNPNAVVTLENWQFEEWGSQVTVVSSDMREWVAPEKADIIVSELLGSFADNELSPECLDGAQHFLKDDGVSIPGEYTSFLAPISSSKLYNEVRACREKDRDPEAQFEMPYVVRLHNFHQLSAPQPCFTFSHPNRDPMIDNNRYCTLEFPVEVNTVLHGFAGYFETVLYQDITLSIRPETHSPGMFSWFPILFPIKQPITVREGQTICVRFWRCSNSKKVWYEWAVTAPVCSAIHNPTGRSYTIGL
T1 sequence (Q9BQA1 whole entry partner): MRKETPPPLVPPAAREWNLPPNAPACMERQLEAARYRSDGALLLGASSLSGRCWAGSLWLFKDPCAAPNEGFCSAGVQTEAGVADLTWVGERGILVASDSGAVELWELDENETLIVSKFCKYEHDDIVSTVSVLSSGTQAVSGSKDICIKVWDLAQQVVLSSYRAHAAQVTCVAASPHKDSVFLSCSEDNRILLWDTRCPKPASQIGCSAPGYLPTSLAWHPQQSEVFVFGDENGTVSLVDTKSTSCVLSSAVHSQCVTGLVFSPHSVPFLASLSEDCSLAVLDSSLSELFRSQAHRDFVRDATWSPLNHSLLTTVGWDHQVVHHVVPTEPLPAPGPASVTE

Row | Compound | IC50 [1] [µM] | IC50 [2] [µM] | IC50 [3] [µM] | IC50 [4] [µM] | extent of 3D colony formation [5] | dimethylation levels at R30 of p65 [6] | activation of NF-κB (luciferase) [7] | mRNA expression of IL8 and TNFα [8] | tumor sizes over time relative to control mice [9] | body weights over the course of treatment [10]
1 | Cl.Clc1ccc(C(OCCN2CCCCC2)c2ccccc2)cc1 (centres unmarked) [Clo, Cloperastine hydrochloride] | 27 | ~30 | 18 to 34 | 26 to 29 | marked decrease | reduction in the dimethylation levels at R30 | concurrent decrease | significant decrease | significantly reduced tumor sizes | body weights remained similar
2 | CCOc1nc2cccc(C(=O)OC(C)OC(=O)OC3CCCCC3)c2n1Cc1ccc(-c2ccccc2-c2nn[nH]n2)cc1 (centres unmarked) [Can, Candesartan cilexetil] | 33 | ~20 | 15 to 17 | 18 to 20 | marked decrease | reduction in the dimethylation levels at R30 | concurrent decrease | significant decrease | remarkably reduced tumor sizes | body weights remained similar
